In patent US20260031189A1, “METHOD AND SYSTEMS FOR PREDICTION OF HLA CLASS II-SPECIFIC EPITOPES AND CHARACTERIZATION OF CD4+ T CELLS” (BioNTech US Inc., priority 2022, published 2026):

What was measured:
[1] = tested on: MHCII alleles (HLA-DP, DQ, DR and murine); assay: FP probe binding assay: catalysis of MHC class II peptide exchange (FITC-probe loading); format: biochemical; conditions: catalyst in acidic assay buffer, 37° C.
Description: To evaluate the kinetics of peptide exchange under various catalyzed and uncatalyzed conditions, the investigators evaluated the binding of FITC-probes at various incubation time points (FIG. 48A, left and right). […] Small molecule chaperones for MHCII loading have been previously described; the investigators tested if the commonly used n-octyl-beta-D-glucopyranoside—(abbreviated as OG) could function as a universal catalyst.
Fluorescence polarization (FP) based assays were developed to either assess the effect of catalysts on peptide exchange (direct loading of FITC-probes) or the IC50 of putative epitope peptides (competition assay). For assessing the loading kinetics of FITC-peptide probes, soluble MHCII protein (125 nM) was incubated with 20 nM of the corresponding allele-specific FITC-peptide FP probe (see Table 20) in either assay buffer alone (100 mM sodium acetate pH 5.2, 50 mM NaCl, 0.01% (v/v) Tween 20), or in combination with either 0.2% (w/v) octyl glucoside or 187.5 nM HLA-sDM in a final reaction volume of 45 μL in a 384-well Optiplate (Perkin Elmer). The plate was incubated at 37° C. and fluorescence polarization measured after 5 minutes, 1, 4, and 24 hours, as described below for the competition assay.

[2] = with NYESO-1 peptide vaccine and Montanide; ovarian carcinoma; cited from earlier work

| Compound | FITC-probe loading onto MHCII alleles [1] | patients with induction of CD4+ and CD8+ T cell and antibody responses to the peptide [2] [%] |
| --- | --- | --- |
| CCCCCCCCO[C@@H]1O[C@H](CO)[C@@H](O)[C@H](O)[C@H]1O [OG, n-octyl-beta-D-glucopyranoside] | only promoted FITC-probe loading on a subset of HLA-DR and -DP alleles |  |
| poly-ICLC |  | > 90 |
